Structures can show the parent of a compound that is named as a salt.
What follows are compounds tested against human H4 receptor (Homo sapiens (Human), UniProt Q9H3N8) (assay: Binding assay on recombinant human histamine H4 receptor ([3H]histamine competition, SK-N-MC cell membranes)). Conditions: Cell Harvester Ki (nM).
Outline: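 Membranes from SK-N-MC cells stably or transiently transfected with human H4 receptor, prepared by homogenization and 30,000 g centrifugation in Tris/EDTA. Bound [3H]histamine separated by rapid filtration on PEI-treated GF/C filters, washed with ice-cold Tris/EDTA, counted by scintillation. '>' values denote highest concentration tested.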

human H4 receptor, sequence (Q9H3N8 whole entry): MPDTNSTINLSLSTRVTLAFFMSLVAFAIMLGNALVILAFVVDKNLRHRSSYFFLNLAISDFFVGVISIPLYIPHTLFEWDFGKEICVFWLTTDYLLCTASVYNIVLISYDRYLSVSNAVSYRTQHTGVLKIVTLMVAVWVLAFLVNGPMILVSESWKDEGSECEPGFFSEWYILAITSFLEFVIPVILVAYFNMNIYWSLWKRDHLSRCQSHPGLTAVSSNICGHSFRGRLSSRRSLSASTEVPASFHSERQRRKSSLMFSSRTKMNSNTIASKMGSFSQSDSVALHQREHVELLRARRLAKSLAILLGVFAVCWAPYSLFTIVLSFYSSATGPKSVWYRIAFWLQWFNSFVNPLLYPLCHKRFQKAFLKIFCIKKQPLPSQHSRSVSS

Compound `CCCCNc1cc(N2CCNCC2)ccn1` [Example 36, N-Butyl-4-piperazin-1-ylpyridin-2-amine] has a Ki of 104 nM.

Same assay, conditions: membranes harvested with 96 well Brandel system; [3H]histamine 10 nM; average of results; read-out: Brandel Ki

Point of comparison: `CN[C@@H]1CCN(c2ccnc(N[C@H]3C[C@H]4C[C@@H]([C@@H]3C)C4(C)C)c2)C1` [Example 9, 4-[(3R)-3-(Methylamino)pyrrolidin-1-yl]-N-[(1S,2S,3S,5R)-2,6,6-trimethylbicyclo[3.1.1]hept-3-yl]pyridin-2-amine], Ki 1 nM. Against it:
- CC(C)Nc1nccc(N2CCN(C)CC2)n1 [Example 53, N-(1-Methylethyl)-4-(4-methylpiperazin-1-yl)pyrimidin-2-amine] — 24-fold higher, 24.3 nM
- N[C@@H]1CCN(c2ccnc(NC3CC3)n2)C1 [Example 55, 4-[(3R)-3-Aminopyrrolidin-1-yl]-N-cyclopropylpyrimidin-2-amine] — 140-fold higher, 138 nM
- CC(C)CNc1cc(N2CCN(C)CC2)cnn1 [Example 101, 5-(4-Methylpiperazin-1-yl)-N-(2-methylpropyl)pyridazin-3-amine] — higher, > 10000 nM

Same assay, conditions: membranes harvested with cell harvester; [3H]histamine 10 nM; average of results; read-out: Cell Harvester Ki

Point of comparison: `CN[C@@H]1CCN(c2cnnc(NCc3ccc(C)cc3)c2)C1` [Example 384, 5-[(3R)-3-(Methylamino)pyrrolidin-1-yl]-N-(4-methylbenzyl)pyridazin-3-amine], Ki 2000 nM. Against it:
- c1cc(N2CCNCC2)nc(NC[C@H]2CCCO2)n1 [Example 69, (R)-(4-Piperazin-1-yl-pyrimidin-2-yl)-(tetrahydro-furan-2-ylmethyl)-amine] — higher, > 10000 nM
- CN[C@@H]1CCN(c2ccnc(NCC(C)(C)O)n2)C1 [Example 114, 2-Methyl-1-({4-[(3R)-3-(methylamino)pyrrolidin-1-yl]pyrimidin-2-yl}amino)propan-2-ol] — 44-fold lower, 45.4 nM
- CNC1CN(c2cnnc(NCc3ccccc3)c2)C1 [Example 330, N-Benzyl-5-[3-(methylamino)azetidin-1-yl]pyridazin-3-amine] — within 1.5-fold, 2590 nM
- CN[C@@H]1CCN(c2ccnc(N[C@H]3C[C@H]4C[C@@H]([C@@H]3C)C4(C)C)c2)C1 [Example 9, 4-[(3R)-3-(Methylamino)pyrrolidin-1-yl]-N-[(1S,2S,3S,5R)-2,6,6-trimethylbicyclo[3.1.1]hept-3-yl]pyridin-2-amine] — 5000-fold lower, 0.4 nM
- CN[C@@H]1CCN(c2ccnc(N[C@H]3C[C@H]4CC[C@]3(C)C4(C)C)n2)C1 [Example 190, 4-[(3R)-3-(Methylamino)pyrrolidin-1-yl]-N-[(1R,2S,4R)-1,7,7-trimethylbicyclo[2.2.1]hept-2-yl]pyrimidin-2-amine] — 1200-fold lower, 1.68 nM
- CC(C)Nc1nccc(N2CCN(C)CC2)n1 [Example 53, N-(1-Methylethyl)-4-(4-methylpiperazin-1-yl)pyrimidin-2-amine] — 23-fold lower, 85.7 nM
- C[C@@H](Nc1cc(N2CC[C@@H](N)C2)cnn1)c1ccccc1 [Example 321, 5-[(3R)-3-Aminopyrrolidin-1-yl]-N-[(1R)-1-phenylethyl]pyridazin-3-amine] — 3.2-fold lower, 626 nM
- CN1CCN(c2ccnc(NCC3CCCC3)c2)CC1 [Example 236, N-(Cyclopentylmethyl)-4-(4-methylpiperazin-1-yl)pyridin-2-amine] — 42-fold lower, 47.4 nM
- CN1CCN(c2ccnc(NCC(C)(C)O)n2)CC1 [Example 120] — 6.6-fold lower, 303 nM
- CNC1CN(c2cnnc(NCCCC(F)(F)F)c2)C1 [Example 299, 5-[3-(Methylamino)azetidin-1-yl]-N-(4,4,4-trifluorobutyl)pyridazin-3-amine] — 14-fold lower, 146 nM
- CNC1CN(c2ccnc(NCCc3ccccc3)c2)C1 [Example 294, 4-[3-(Methylamino)azetidin-1-yl]-N-(2-phenylethyl)pyridin-2-amine] — 19-fold lower, 103 nM
- COCCNc1nccc(N2CC[C@H](N)C2)n1 [Example 128, 4-[(3S)-3-Aminopyrrolidin-1-yl]-N-(2-methoxyethyl)pyrimidin-2-amine] — 2.4-fold lower, 844 nM
- NC1CN(c2cnnc(NCC3CCCC3)c2)C1 [Example 358, 5-(3-Aminoazetidin-1yl)-N-(cyclopentylmethyl)pyridazin-3-amine] — higher, > 10000 nM
- OCCCNc1nccc(N2CC3CCN[C@H]3C2)n1 (stereo in doubt) [Example 159, 3-({4-[(3aR,6aR)-Hexahydropyrrolo[3,4-b]pyrrol-5(1H)-yl]pyrimidin-2-yl}amino)propan-1-ol] — 7.5-fold lower, 266 nM
- NC1CN(c2ccnc(NC3CC3)n2)C1 [Example 91, 4-(3-Aminoazetidin-1-yl)-N-cyclopropylpyrimidin-2-amine] — 11-fold lower, 182 nM
- CN[C@H]1CCN(c2ccnc(NCc3ccc(F)cc3)c2)C1 [Example 246, N-(4-Fluorobenzyl)-4-[(3S)-3-(methylamino)pyrrolidin-1-yl]pyridin-2-amine] — 5.1-fold lower, 395 nM
- CN[C@@H]1CCN(c2cnnc(NC3CCCC3)c2)C1 [Example 412, N-cyclopentyl-5-[(3R)-3-(methylamino)pyrrolidin-1-yl]pyridazin-3-amine] — 360-fold lower, 5.6 nM
- N[C@@H]1CCN(c2ccnc(NCCc3ccccc3)n2)C1 [Example 117, 4-[(3R)-3-Aminopyrrolidin-1-yl]-N-(2-phenylethyl)pyrimidin-2-amine] — 8.1-fold lower, 247 nM
- c1ccc(CNc2nccc(N3CCNCC3)n2)nc1 [Example 157, 4-Piperazin-1-yl-N-(pyridin-2-ylmethyl)pyrimidin-2-amine] — within 1.5-fold, 2140 nM
- N[C@@H]1CCN(c2cnnc(NC3CCCC3)c2)C1 [Example 368, 5-[(3R)-3-Aminopyrrolidin-1-yl]-N-cyclopentylpyridazin-3-amine] — 6.9-fold lower, 290 nM
- C[C@@H]1[C@@H](Nc2nccc(N3CCN(C)CC3)n2)C[C@H]2C[C@@H]1C2(C)C [Example 168, 4-(4-Methylpiperazin-1-yl)-N-[(1S,2S,3S,5R)-2,6,6-trimethylbicyclo[3.1.1]hept-3-yl]pyrimidin-2-amine] — 4.1-fold lower, 483 nM
- N[C@@H]1CCN(c2ccnc(NC3CC3)n2)C1 [Example 55, 4-[(3R)-3-Aminopyrrolidin-1-yl]-N-cyclopropylpyrimidin-2-amine] — 20-fold lower, 102 nM
- CC(C)CNc1cc(N2CCN(C)CC2)cnn1 [Example 101, 5-(4-Methylpiperazin-1-yl)-N-(2-methylpropyl)pyridazin-3-amine] — higher, > 10000 nM
- CN[C@@H]1CCN(c2ccnc(NCc3ccccc3)n2)C1 [Example 174, N-Benzyl-4-[(3R)-3-(methylamine)pyrrolidin-1-yl]pyrimidin-2-amine] — 100-fold lower, 19.1 nM
- N[C@@H]1CCN(c2ccnc(NCc3ccccn3)n2)C1 [Example 61] — higher, > 10000 nM
- CN1CCN(c2ccnc(NC3CC3)n2)CC1 [Example 56, N-Cyclopropyl-4-(4-methylpiperazin-1-yl)pyrimidin-2-amine] — 3.5-fold lower, 568 nM
- CN[C@H]1CCN(c2cnnc(NCC(C)(C)C)c2)C1 [Example 385, N-(2,2-Dimethylpropyl)-5-[(3S)-3-(methylamino)pyrrolidin-1-yl]pyridazin-3-amine] — 7.7-fold lower, 259 nM
- CN[C@@H]1CCN(c2ccnc(NCC(C)(C)O)c2)C1 [Example 240, 2-Methyl-1-({4-[(3R)-3-(methylamino)pyrrolidin-1-yl]pyridin-2-yl}amino)propan-2-ol] — 37-fold lower, 54.3 nM
- CC1(C)[C@H]2CC[C@H](CNc3cc(N4CC(N)C4)cnn3)[C@@H]1C2 [Example 306, 5-(3-Aminoazetidin-1-yl)-N-{[(1S,2S,5S)-6,6-dimethylbicyclo[3.1.1]hept-2-yl]methyl}pyridazin-3-amine] — 3.6-fold higher, 7220 nM
- CN[C@@H]1CCN(c2cnnc(N[C@H](C)c3ccccc3)c2)C1 [Example 401, 5-[(3R)-3-(Methylamino)pyrrolidin-1-yl]-N-[(1R)-1-phenylethyl]pyridazin-3-amine] — 25-fold lower, 79.3 nM
- c1cc(N2CCNCC2)cc(NC2CCCC2)n1 [Example 16, N-Cyclopentyl-4-piperazin-1-ylpyridin-2-amine] — 41-fold lower, 48.2 nM
- CC(C)(C)CNc1cc(N2CCNCC2)cnn1 [Example 357, N-(2,2-Dimethylpropyl)-5-piperazin-1-ylpyridazin-3-amine] — 2.2-fold higher, 4370 nM
- CNC1CN(c2ccnc(NCC(C)(C)O)c2)C1 [Example 282, 2-Methyl-1-({4-[3-(methylamino)azetidin-1-yl]pyridin-2-yl}amino)propan-2-ol] — 12-fold lower, 173 nM
- c1ccc(CCNc2nccc(N3CCNCC3)n2)cc1 [Example 132, N-(2-Phenylethyl)-4-piperazin-1-ylpyrimidin-2-amine] — within 1.5-fold, 1540 nM
- COCCNc1nccc(N2C[C@H]3CCN[C@H]3C2)n1 [Example 140, 4-[(3aR,6aR)-Hexahydropyrrolo[3,4-b]pyrrol-5(1H)-yl]-N-(2-methoxyethyl)pyrimidin-2-amine] — 15-fold lower, 135 nM
- N[C@H]1CCN(c2ccnc(NC3CC4CCC3C4)n2)C1 (stereo partly drawn) [Example 146, 4-[(3S)-3-Aminopyrrolidin-1-yl]-N-bicyclo[2.2.1]hept-2-ylpyrimidin-2-amine] — 59-fold lower, 34.1 nM
- CN[C@@H]1CCN(c2ccnc(NC3CCOCC3)c2)C1 [Example 222, 4-[(3R)-3-(Methylamino)pyrrolidin-1-yl]-N-(tetrahydro-2H-pyran-4-yl)pyridin-2-amine] — 30-fold lower, 67.3 nM
- c1cc(N2C[C@H]3CCN[C@H]3C2)cc(NC2CCCC2)n1 [Example 262, N-Cyclopentyl-4-[(3aR,6aR)-hexahydropyrrolo[3,4-b]pyrrol-5(1H)-yl]pyridin-2-amine] — 90-fold lower, 22.1 nM
- CN[C@@H]1CCN(c2cnnc(NCc3ccccc3)c2)C1 [Example 397, N-Benzyl-5-[(3R)-3-(methylamino)pyrrolidin-1-yl]pyridazin-3-amine] — 5.7-fold lower, 353 nM
- CC(C)(CO)CNc1cc(N2CCNCC2)cnn1 [Example 366, 2,2-Dimethyl-3-[(5-piperazin-1-ylpyridazin-3-yl)amino]propan-1-ol] — higher, > 10000 nM
- CCCCNc1nccc(N2CC(N)C2)n1 [Example 84, [4-(3-Amino-azetidin-1-yl)-pyrimidin-2-yl]-butyl-amine] — 60-fold lower, 33.3 nM
- N[C@H]1CCN(c2ccnc(NCc3ccccn3)n2)C1 [Example 118, 4-[(3S)-3-Aminopyrrolidin-1-yl]-N-(pyridin-2-ylmethyl)pyrimidin-2-amine] — higher, > 10000 nM
- CN[C@@H]1CCN(c2ccnc(NCC3CCCO3)c2)C1 (stereo partly drawn) [Example 6, 4-[(3R)-3-(Methylamino)pyrrolidin-1-yl]-N-[tetrahydrofuran-2-ylmethyl]pyridin-2-amine dihydrochloride] — 57-fold lower, 35.1 nM
- CN1CCN(c2cnnc(NCC3CCCC3)c2)CC1 [Example 408, N-(Cyclopentylmethyl)-5-(4-methylpiperazin-1-yl)pyridazin-3-amine] — higher, > 10000 nM
- CNC1CN(c2ccnc(NC3CC4CCC3C4)n2)C1 (centres unmarked) [Example 147, N-Bicyclo[2.2.1]hept-2-yl-4-[3-(methylamino)azetidin-1-yl]pyrimidin-2-amine] — 300-fold lower, 6.66 nM
- CNC1CN(c2ccnc(NCC(C)C)c2)C1 [Example 34, 4-[3-(Methylamino)azetidin-1-yl]-N-(2-methylpropyl)pyridin-2-amine] — 110-fold lower, 18.1 nM

Same assay, conditions: read-out: Brandel Ki

In the case of `CCCCNc1cc(N2CCNCC2)ccn1` [Example 36, N-Butyl-4-piperazin-1-ylpyridin-2-amine], the Ki is reported as 91.3 nM.

Source: patent publication US9732087B2, “Diamino-pyridine, pyrimidine, and pyridazine modulators of the histamine H4 receptor” (JANSSEN PHARMACEUTICA NV, priority 2008, dated 2017)
